The numbers were not newly measured in patent US20230363996A1, “HAIR CARE COMPOSITION” (Conopco, Inc., d/b/a UNILEVER, priority 2020, published 2023), which cites them from elsewhere.

The conditions of the data set: organic/aqueous partition.
With `O=C(c1ccccc1)c1cc(Cl)ccc1O` [benzophenone-7], the “log P” value is listed as 4.51.
As to `COc1cc(O)c(C(=O)c2ccccc2)cc1S(=O)(=O)O` [Benzophenone-4, reference compound], the “log P” value is on record as “Benzophenone-4 (logP = 0.99)”.
For `O=C(c1ccc(O)cc1O)c1ccc(O)cc1O` [benzophenone-2], the “log P” value was 3.09.
For the compound `COc1ccc(C(=O)c2ccc(OC)cc2O)c(O)c1` [benzophenone-6], the “log P” value is 4.78.
On to `O=C(c1ccccc1)c1ccc(O)cc1O` [benzophenone-1], for which the “log P” value is on record as 3.15.
In the case of `COc1ccc(C(=O)c2ccccc2O)c(O)c1` [benzophenone-8], the “log P” value is reported as 4.31.
Turning to `COc1ccc(C(=O)c2ccccc2)c(O)c1` [benzophenone-3], the “log P” value was 3.99.
On to `COc1ccc(C(=O)c2ccc(C)cc2)c(O)c1` [benzophenone-10], for which the “log P” value is reported as 4.66.
